The text below walks through data of patent US11673878B2, “Benzazepine derivatives” (OTSUKA PHARMACEUTICAL CO., LTD., priority 2017, dated 2023).

For data set [1], the target named is T1, rat vasopressin V1a receptor (Rattus norvegicus, UniProt P30560).
T1 construct: V1a receptor fractions derived from rat hepatic membrane; from tissue; host or cells: rat liver (hepatic membrane)
Description: Binding inhibition test for rat V1a receptor (3H-AVP, rat hepatic membrane). As to conditions: inhibition of 3H-AVP binding, rat hepatic membrane V1a receptor fractions, 4° C., 2 hours; read-out: Binding affinity rV1a (IC50). Here is the method:
(§1) Various compounds were studied in binding affinities for vasopressin receptors with an indicator of binding inhibition of rat vasopressin V1a receptor and vasopressin V2 receptor of ^3H-arginine vasopressin (AVP) (NET800, available from PerkinElmer Inc., Life Sciences).
(1) Binding Inhibition Test for Rat V1a Receptor (rV1aR)
50 μg of V1a receptor fractions derived from rat hepatic membrane were diluted with a reaction solution (100 mM Tris-HCl (pH 8.0), 0.1% BSA, 5 mM MgCl2, 1 mM EDTA) and added to each well of a 96-well plate. A compound was added to each well in various concentrations (0.3 nM to 100 nM), and ^3H-AVP was added thereto in the range of 1 nM to 3 nM. Reactions were carried out at 4° C. for 2 hours on the plate. Via receptor fractions were collected with a 96-well glass filter (Unifilter GF/B) after the reactions and washed with a washing solution (10 mM Tris-HCl (pH 8.0), 5 mM MgCl2, 1 mM EDTA) three times, and then the radioactivity of ^3H-AVP was measured with a scintillation counter.
(§2) ^3H-AVP binding rate in the presence of a compound was calculated by the following equation. Binding rate (%)=(B−NSB)/(TB−NSB)×100 (B: Binding amount of ^3H-AVP in the presence of each compound, NSB: Binding amount of ^3H-AVP in the presence of 1 μM of unlabeled AVP, TB: Binding amount of ^3H-AVP in the absence of 1 μM of unlabeled AVP)

The target of data set [2] is T2, rat vasopressin V2 receptor (Rattus norvegicus, UniProt Q00788).
T2 construct: expressed in transfected cells; host or cells: CHO cells (rV2R-CHO)
As to the kind of experiment: Binding inhibition test for rat V2 receptor (3H-AVP, rV2R-CHO cells). The note with it: inhibition of 3H-AVP binding, 4° C., 2 hours, read-out: Binding affinity rV2 (IC50). On the procedure:
as §1
(2) Binding Inhibition Test for Rat V2 Receptor (rV2R)
Rat V2 receptor-expressed CHO cells (rV2R—CHO) were incubated on 10% FBS-containing DMEM/F12 in a 24-well plate, and each cell was washed with D-PBS twice. A reaction solution (D-PBS containing 0.1% BSA and 0.05% sodium azide) comprising a compound in various concentrations (0.3 nM to 100 nM) was added to each well, and a certain amount of ^3H-AVP was added thereto (100-fold dilution). Reactions were carried out at 4° C. for 2 hours on the plate. Then, each well was washed with D-PBS twice and 0.1N NaOH was added to each well. The cells were collected, and the radioactivity of ^3H-AVP was measured with a scintillation counter.
as §2

Data set [3] in a line: Metabolic stability test in human liver microsomes. The note with it: pH 7.4; human liver microsomes 1 mg/mL, test compound 1 μmol/L, NADPH and NADH, 37° C., n = 4; read-out: CLint (μL/min/mg) mean ± SD. In kind it is in vitro ADME. Here is the method:
Reaction System and Incubation
According to methods of Obach and Jones, et al. (methods described in R. S. Obach, Drug Metab. Dispos. 1999 (27): 1350-1359 and H. Jones and J. B. Houston, Drug Metab. Dispos. 2004 (32): 973-982), the reaction system shown below was prepared and metabolic stabilities of test compounds (the present compounds and, tolvaptan) were evaluated using the reaction system shown below. Human liver microsomes purchased from Corning Inc. were used. Test compounds were dissolved in DMSO at the concentration of 10 mmol/L and then diluted with acetonitrile to prepare a 100 μmol/L solution for use in the test. The 100 μmol/L solutions were used in the experiment.
Human liver microsome 1 mg/mL
Co-factor (NADPH and NADH) 1 mmol/L each
Magnesium chloride 5 mmol/L
100 mmol/L Potassium phosphate buffer (pH 7.4)
The reaction mixture without co-factors was pre-incubated at 37° C. for 5 minutes, and then the reaction was initiated by the addition of the co-factors. The mixture was incubated for 0, 5, 10, 20, 30, and 60 minutes after the addition of the co-factors. An aliquot of the reaction mixture was removed and added to a methanol solution containing an internal standard (IS) and mixed to terminate the reaction at each predetermined time.
After the reaction was terminated, the mixture was separated by centrifugation and the supernatant was injected into a liquid chromatograph-tandem mass spectrometer (LC-MS/MS) to measure unchanged substances remained in the reaction system. The mass spectrometer was operated in a positive ion mode of the electrospray ionization (ESI) method. Unchanged substances and the IS were detected by multiple reaction monitoring (MRM) transitions using selected precursor and product ions set.
The remaining ratios of test compounds were calculated by the following equation. Remaining ratio=(Peak area ratio of a test compound to IS at t minutes after incubation)÷(Peak area ratio of a test compound to IS at 0 minute)
The slope of X-axis (the incubation time) and Y-axis (logarithm of the remaining ratio) was calculated by a non-linear least square method. Hepatic intrinsic clearance (CLint) was calculated by the following equation. CLint(μL/min/mg)=−(Slope(min^−1))÷1(mg/mL)×1000
Background: Liver microsomes are a subcellular fraction often used to study metabolism.

The nature of data set [4]: Pharmacokinetics study in mice, single oral dose. In kind it is in vivo. As to conditions: mouse; male ICR mice, single-dose oral administration of 30 mg/kg, plasma. Here is the method:
A pharmacokinetics (PK) study was performed using male ICR mice to compare the oral absorption properties of the present compounds with tolvaptan. A test compound was suspended in a 1% hydroxypropyl methylcellulose (HPMC) solution to be adjusted to the concentration of 4.5 mg/mL. The present compounds were used as the forms obtained in the above examples (including the amorphous form) for a test compound, or used after spray drying, if needed.
Male ICR mice (7-week old) were freely fed food and water and weighed on an electronic scale. Then, a test compound was orally administered at the dose of 30 mg/kg […]. After the oral administration, blood was collected from the abdominal vena cava under isoflurane anesthesia using a 1 mL heparinized syringe with a 26 G injection needle. Blood was separated by centrifugation at 4° C., 3000 rpm for 10 minutes to give plasma in a supernatant. The plasma concentration of a test compound was measured by LC-MS/MS.
The following PK parameters were calculated using the mean plasma concentrations of unchanged substances obtained from two animals at each time point.
Cmax: Maximum plasma concentration (μg/mL)
tmax: Time-to-maximum plasma concentration (h)
AUCinf: Area under the plasma concentration-time curve from administration to infinite time (μg h/mL)

A word on the IC50: it is the concentration at which inhibition is half-maximal. Broadly, the AUC(0-inf) is the area under the concentration-time curve extrapolated to infinity. A high value points to high exposure. For orientation: Cmax means the peak of the concentration-time curve. One may read the Tmax as the time at which the peak concentration occurs.

T1 sequence (P30560 whole entry): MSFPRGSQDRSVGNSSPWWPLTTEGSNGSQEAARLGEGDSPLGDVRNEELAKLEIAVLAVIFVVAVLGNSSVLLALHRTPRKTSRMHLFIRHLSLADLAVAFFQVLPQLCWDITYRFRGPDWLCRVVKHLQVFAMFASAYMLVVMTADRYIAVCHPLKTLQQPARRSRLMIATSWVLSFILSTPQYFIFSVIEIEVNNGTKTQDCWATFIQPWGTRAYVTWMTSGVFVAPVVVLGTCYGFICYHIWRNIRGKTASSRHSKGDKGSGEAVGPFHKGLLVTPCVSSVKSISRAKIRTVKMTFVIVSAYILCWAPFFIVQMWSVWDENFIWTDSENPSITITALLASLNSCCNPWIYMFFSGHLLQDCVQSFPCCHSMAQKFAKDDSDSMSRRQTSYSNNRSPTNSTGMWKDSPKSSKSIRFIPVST
T2 sequence (Q00788 whole entry): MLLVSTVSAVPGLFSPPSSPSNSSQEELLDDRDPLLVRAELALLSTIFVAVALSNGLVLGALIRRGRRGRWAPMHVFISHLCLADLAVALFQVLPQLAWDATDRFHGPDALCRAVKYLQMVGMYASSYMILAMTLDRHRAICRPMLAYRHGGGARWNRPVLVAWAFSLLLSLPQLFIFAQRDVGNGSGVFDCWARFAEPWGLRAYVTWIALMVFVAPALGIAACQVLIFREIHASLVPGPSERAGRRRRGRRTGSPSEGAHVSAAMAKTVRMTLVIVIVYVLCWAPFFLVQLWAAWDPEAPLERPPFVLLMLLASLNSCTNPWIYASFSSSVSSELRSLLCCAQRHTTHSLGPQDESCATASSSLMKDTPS

`O=C(Nc1ccc(C(=O)N2CCC(F)(F)[C@](O)(CO)c3cc(Cl)ccc32)cc1)c1cc(F)ccc1-c1ccccc1F` [Example 169, N-{4-[(5R)-7-chloro-4,4-difluoro-5-hydroxy-5-(hydroxymethyl)-2,3,4,5-tetrahydro-1H-1-benzazepine-1-carbonyl]phenyl}-2′,4-difluoro-[1,1′-biphenyl]-2-carboxamide]: the IC50 in data set [1] stood at 1.6 nM. For the same compound, the IC50 in data set [2] worked out at 3.3 nM. The microsomal CLint at 1 μmol/L in data set [3] stood at 5.09 ± 0.32 µL/min/mg. In data set [4], the total exposure AUC(0-inf) came to 32200 ng·h/mL, the Cmax is 5650 ng/mL and the Tmax turned out to be 1 h.

For the compound `O=C(Nc1ccc(C(=O)N2CCC(F)(F)[C@](O)(CO)c3cc(Cl)ccc32)cc1F)c1cc(F)ccc1C(F)(F)F` [Example 132], the IC50 in data set [1] turned out to be 5.2 nM. For the same compound, the IC50 in data set [2] amounted to 2.3 nM. For the same compound, in data set [3], the microsomal CLint at 1 μmol/L is less than 4 µL/min/mg. Moreover, in data set [4], the AUC(0-inf) came out at 56500 ng·h/mL, the highest level (Cmax) was 3590 ng/mL and the Tmax stood at 4 h.

`O=C(Nc1ccc(C(=O)N2CCC(F)(F)C(O)(CO)c3cc(Cl)ccc32)cn1)c1cc(F)ccc1Cl` (stereo not drawn) [Example 3, 2-chloro-N-{5-[7-chloro-4,4-difluoro-5-hydroxy-5-(hydroxymethyl)-2,3,4,5-tetrahydro-1H-1-benzazepine-1-carbonyl]pyridin-2-yl}-5-fluorobenzamide]: the IC50 in data set [1] was found to be 9.5 nM. Besides, the IC50 in data set [2] was found to be 2.1 nM. Besides, in data set [3], the microsomal CLint at 1 μmol/L is less than 4 µL/min/mg. Also, in data set [4], the AUC(0-inf) stood at 38900 ng·h/mL, the peak level (Cmax) was 4820 ng/mL and the Tmax worked out at 1 h.

For `O=C(Nc1ccc(C(=O)N2CCC(F)(F)[C@](O)(CO)c3cc(Cl)ccc32)cc1F)c1cc(F)ccc1-c1ccccc1F` [Example 168, N-{4-[(5R)-7-chloro-4,4-difluoro-5-hydroxy-5-(hydroxymethyl)-2,3,4,5-tetrahydro-1H-1-benzazepine-1-carbonyl]-2-fluorophenyl}-2′,4-difluoro-[1,1′-biphenyl]-2-carboxamide], in data set [1], the IC50 worked out at 2.2 nM. Besides, the IC50 in data set [2] came out at 4.7 nM. Also, the microsomal CLint at 1 μmol/L in data set [3] is 7.48 ± 1.5 µL/min/mg. In addition, in data set [4], the AUC(0-inf) is 40900 ng·h/mL, the Cmax was 7110 ng/mL and the Tmax came to 1 h.

`O=C(Nc1ccc(C(=O)N2CCC(F)(F)[C@](O)(CO)c3cc(Cl)ccc32)cn1)c1cc(F)c(Cl)cc1Cl` [Example 52, 2,4-dichloro-N-{5-[(5R)-7-chloro-4,4-difluoro-5-hydroxy-5-(hydroxymethyl)-2,3,4,5-tetrahydro-1H-1-benzazepine-1-carbonyl]pyridin-2-yl}-5-fluorobenzamide]: the IC50 in data set [1] was found to be 8.8 nM. The IC50 in data set [2] worked out at 3 nM. Further, the microsomal CLint at 1 μmol/L in data set [3] is less than 4 µL/min/mg. Moreover, in data set [4], the AUC(0-inf) was 62700 ng·h/mL, the Cmax amounted to 5570 ng/mL and the Tmax worked out at 1 h.

Regarding `O=C(Nc1ccc(C(=O)N2CCC(F)(F)[C@](O)(CO)c3cc(Cl)ccc32)cn1)c1cc(F)ccc1-c1ccccc1` [Example 96, N-{5-[(5R)-7-chloro-4,4-difluoro-5-hydroxy-5-(hydroxymethyl)-2,3,4,5-tetrahydro-1H-1-benzazepine-1-carbonyl]pyridin-2-yl}-4-fluoro-[1,1′-biphenyl]-2-carboxamide], in data set [1], the IC50 came out at 2 nM. Also, in data set [2], the IC50 turned out to be 5 nM. The microsomal CLint at 1 μmol/L in data set [3] worked out at 0.953 ± 1.91 µL/min/mg. Besides, in data set [4], the AUC(0-inf) came out at 43000 ng·h/mL, the Cmax turned out to be 5550 ng/mL and the Tmax was 4 h.

As to `O=C(Nc1ccc(C(=O)N2CCC(F)(F)C(O)(CO)c3cc(Cl)ccc32)cn1)c1ccccc1C(F)(F)F` (stereo not drawn) [Example 2, N-{5-[7-chloro-4,4-difluoro-5-hydroxy-5-(hydroxymethyl)-2,3,4,5-tetrahydro-1H-1-benzazepine-1-carbonyl]pyridin-2-yl}-2-(trifluoromethyl)benzamide], the IC50 in data set [1] was 3.4 nM. Moreover, in data set [2], the IC50 was 2.1 nM. Moreover, in data set [3], the microsomal CLint at 1 μmol/L is less than 4 µL/min/mg. Also, in data set [4], the AUC(0-inf) is 95700 ng·h/mL, the peak level (Cmax) was 9230 ng/mL and the Tmax was determined as 1 h.

Regarding `O=C1c2cc(F)ccc2CCN1c1ccc(C(=O)N2CCC(F)(F)[C@](O)(CO)c3cc(Cl)ccc32)cc1` [Example 187, 2-{4-[(5R)-7-chloro-4,4-difluoro-5-hydroxy-5-(hydroxymethyl)-2,3,4,5-tetrahydro-1H-1-benzazepine-1-carbonyl]phenyl}-7-fluoro-1,2,3,4-tetrahydroisoquinolin-1-one], the IC50 in data set [1] turned out to be 2.6 nM. Further, in data set [2], the IC50 was 0.4 nM. In addition, in data set [3], the microsomal CLint at 1 μmol/L is less than 4 µL/min/mg. Besides, in data set [4], the AUC(0-inf) came to 5440 ng·h/mL, the Cmax turned out to be 2040 ng/mL and the time of peak concentration (Tmax) was found to be 1 h.

As for `COc1cc(C(=O)N2CCC(F)(F)[C@](O)(CO)c3cc(Cl)ccc32)ccc1NC(=O)c1ccc(F)cc1Cl` [Example 58, 2-chloro-N-{4-[(5R)-7-chloro-4,4-difluoro-5-hydroxy-5-(hydroxymethyl)-2,3,4,5-tetrahydro-1H-1-benzazepine-1-carbonyl]-2-methoxyphenyl}-4-fluorobenzamide], in data set [1], the IC50 amounted to 9.3 nM. For the same compound, the IC50 in data set [2] stood at 1.3 nM. In data set [3], the microsomal CLint at 1 μmol/L was determined as 1.81 ± 2.1 µL/min/mg. In addition, in data set [4], the AUC(0-inf) turned out to be 44900 ng·h/mL, the Cmax is 5890 ng/mL and the Tmax worked out at 1 h.

Take `O=C(Nc1ccc(C(=O)N2CCC(F)(F)[C@](O)(CO)c3cc(Cl)ccc32)cc1)c1cc(F)ccc1-c1ccccc1` [Example 153, N-{4-[(5R)-7-chloro-4,4-difluoro-5-hydroxy-5-(hydroxymethyl)-2,3,4,5-tetrahydro-1H-1-benzazepine-1-carbonyl]phenyl}-4-fluoro-[1,1′-biphenyl]-2-carboxamide]: the IC50 in data set [1] amounted to 3.6 nM. Also, in data set [2], the IC50 amounted to 4.5 nM. For the same compound, the microsomal CLint at 1 μmol/L in data set [3] was determined as 1.91 ± 2.22 µL/min/mg. Besides, in data set [4], the AUC(0-inf) amounted to 34000 ng·h/mL, the Cmax turned out to be 5480 ng/mL and the Tmax was determined as 1 h.
